Values of other authors in patent publication US20150336981A1, “MODIFIED POLYPHENOLS AND MODIFIED POLYPHENOL COMPOSITIONS” (CELLAROUGE PTY LTD, priority 2012, published 2015).

Test system: high-carbohydrate, high fat diet-fed rats
Conditions: HEA: high-carbohydrate, high fat diet + ellagic acid 0.8 g/kg food

Question: Which AUC does the source give for `O=c1oc2c(O)c(O)cc3c(=O)oc4c(O)c(O)cc1c4c23` [ellagic acid] here?
Answer: 696 ± 11 mmol·min/L

Question: And the Abdominal circumference?
Answer: 21.3 ± 0.3 cm

Question: What about the Abdominal fat pads of the same molecule?
Answer: 520 ± 29 mg/mm tibial length

Question: And the BMI?
Answer: 0.72 ± 0.02 g/cm^2

Question: What about the Basal blood glucose of the same molecule?
Answer: 3.9 ± 0.2 mmol/L

Question: And the Feed efficiency?
Answer: 0.31 ± 0.02 g/kJ

Question: And the Final body weight?
Answer: 473 ± 2 g

Question: What about the Food intake of the same molecule?
Answer: 21.0 ± 0.4 g

Question: And the “Plasma C-reactive protein” value?
Answer: 2.40 ± 0.07 µmol/L

Question: What about the “Plasma non-esterified fatty acids” value of the same molecule?
Answer: 1.7 ± 0.2 mmol/L

Question: And the Plasma total cholesterol?
Answer: 1.5 ± 0.1 mmol/L

Question: And the Plasma triglycerides?
Answer: 0.5 ± 0.1 mmol/L

Question: What about the Plasma urea of the same molecule?
Answer: 6.2 ± 0.4 mmol/L

Question: And the Plasma uric acid?
Answer: 44.3 ± 3.8 µmol/L

Question: What about the Water intake of the same molecule?
Answer: 19.0 ± 0.4 mL
